According to patent US8541473B2, “3-aminoxalyl-aminobenzamide derivatives and insecticidal and miticidal agents containing same as active ingredient” (Agro-Kanesho Co., Ltd., priority 2009, dated 2013):

Key:
Type in all cases: in vivo
nymphs of Myzus persicae = test: Effect of killing larvae of Myzus persicae (leaf piece immersion); conditions: for rate of killed nymphs: 7th day after treatment, agonized nymphs regarded as killed
Procedure: Three each of adults of Myzus persicae were inoculated on a cut piece (having a size of 3 cm×4 cm) of the leaf of Chinese cabbage and they were made breed for 48 hours within a thermostatic chamber maintained at a temperature of 25° C. After the removal of the adults, each cut piece of the leaf was immersed in a water-diluted emulsion prepared according to the same procedures used in the foregoing Drug-Preparation Example 1 for 5 seconds, and then kept in a thermostatic chamber maintained at 25° C. On 7th day after the foregoing treatment, the nymphs were inspected for whether they were died or not and whether they were in agony or not and the rates (%) of killed nymphs of the plant lice were determined, while the agonized nymphs were regarded as killed ones. In this respect, the comparative compounds used in this test were compounds A and B disclosed in JP-A-2006-306771.

[1] = test system: larvae of Plutella xylostella; test: Insecticidal effect on larvae of Plutella xylostella (spray on potted Chinese cabbage); conditions: for rate of killed insects (larvae): 5 days after release of larvae, agonized larvae regarded as killed
Procedure: The seeds of Chinese cabbage were sowed in a pot and then the seedlings were raised over 3 weeks. A water-diluted emulsion prepared according to the procedures used in the foregoing drug-preparation Example 1 was sufficiently sprayed on the leaves of these potted plants using an air brush (one concentration, once repeated). After the drug-containing liquid was air-dried, the plants were kept in a thermostatic chamber maintained at 25° C. and the larvae of the insect were set free. After 5 days from the release of the larvae, the latter was examined for whether they were died or not and whether they were in agony or not and the rates of killed insects (larvae) (%) were determined, while the agonized larvae were regarded as killed ones. In this respect, the comparative compounds used in this test were compounds A and B disclosed in JP-A-2006-306771 (Patent Document 25).

[2] = test system: female adults of Tetranychus urticae; test: Miticidal effect on adults of Tetranychus urticae (spray on bean leaf-disks); conditions: for rate of killed adults: 4 days after drug-spray, agonized adults regarded as killed
Procedure: A polyethylene cup having a volume of 430 ml and filled with water was covered with a cap in which a hole (diameter: about 5 mm) had been formed at the center thereof. A cut having a width of about 5 mm was made on a circular filter paper having a diameter of 6.5 cm, the strip-like portion of the filter paper, which hung down, was inserted into the cup through the hole thereof in such a manner that the portion was immersed in the water contained in the cup, and absorbent cotton was put on the filter paper so that the water in the cup was always supplied to the absorbent cotton. Then, two leaf-disks (2 cm×5 cm) prepared from the primary leaves of bean were put on the absorbent cotton and then these two leaf-disks were inoculated with 10 female adults of Tetranychus urticae. This cup was placed in a cylinder of acrylic resin having a height of 50 cm and an inner diameter of 10 cm and a water-diluted emulsion prepared according to the same procedures used in the foregoing drug-preparation Example 1 was then sprayed on each cup in an amount of 1.35 ml per cup using an air brush (one concentration, once repeated). After the agricultural chemical was sprayed, the cups were kept in a thermostatic chamber maintained at a temperature of 25° C. After 4 days from the drug-spray, the adults were examined, under the observation by a prism binocular, for whether they were died or not and whether they were in agony or not and the rates of killed mites (adults) (%) were determined, while the agonized adults were regarded as killed ones. In this respect, the comparative compounds used in this test were compounds A and B disclosed in JP-A-2006-306771.

[3] = comparative compounds, result in words, stated against the 50 ppm result

SMILES	insecticidal effect (nymphs of Myzus persicae; [3])	insecticidal effect ([1]; comparative compounds, result in words, stated against the 500 ppm result)	insecticidal effect [2, 3]	rate of killed nymphs (nymphs of Myzus persicae; 12.5 ppm) [%]	rate of killed nymphs (nymphs of Myzus persicae; 50 ppm) [%]	rate of killed insects (larvae) ([1]; 12.5 ppm) [%]	rate of killed insects (larvae) ([1]; 50 ppm) [%]	rate of killed insects (larvae) ([1]; 500 ppm) [%]	rate of killed adults ([2]; 12.5 ppm) [%]	rate of killed adults ([2]; 50 ppm) [%]
CCOC(=O)C(=O)Nc1cccc(C(=O)Nc2c(C)cc(C(F)(C(F)(F)F)C(F)(F)F)cc2C)c1 [compound B, reference compound]	did not show any insecticidal effect	did not show any insecticidal effect	did not show any insecticidal effect	–	–	–	–	–	–	–
CCc1cc(C(F)(C(F)(F)F)C(F)(F)F)cc(Br)c1NC(=O)c1cccc(NC(=O)C(=O)N(C)CC(F)F)c1 [Compound 1-109]	–	–	–	100	100	100	100	100	100	100
